Test results from patent publication US3984390A, “Novel process for producing phleomycin group antibiotics” (Zaidan Hojin Biseibutsu Kagaku Kenkyu Kai, priority 1972, dated 1976).

Tests used:
[1] = tested on: Mycobacterium smegmatis 607; experiment: Antimicrobial potency, cylinder agar plate method, Bleomycin A2 (copper-free base) assumed as 1000 U/mg; assay type: cell-based; details: Mycobacterium smegmatis 607
Protocol: 1. Antimicrobial potency was assayed by a cylinder agar plate method on the basis of Bleomycin A2 (copper-free base) assumed as 1000 U/mg, using Mycobacterium smegmatis 607 as test organism.
^(1) Assayed by a cylinder-agar plate method using Mycobacterium
smegmatis 607 as test organism, the potency of bleomycin A2
(copper-free base) being assumed as 1000 unit/mg.
The resulting compound has 0.65 of Rf value of the Silica gel thin layer chromatograph (CH3 OH: 10 %-CH3 COONH4 : 10 %-NH4 OH = 10 : 9 : 1) and 0.53 of Rf value of the Avicel thin layer chromatography (n-C3 H7 OH : pyridine : CH3 COOH : H2 O = 15 : 10 : 3 : 12) which are same with those of the 3-morpholinopropylaminobleomycin. The antimicrobial activity to Mycobacterium smegmatis 607 by the cylinder-agar plate method (the standard copper-free bleomycin A2 free base 1,000 U/mg) was 605 U/mg.

[2] = tested on: Ehrlich ascites carcinoma; experiment: Antitumor activity and toxicity in ICR-SLC mouse inoculated with Ehrlich ascites carcinoma, i.p. for ten consecutive days; assay type: in vivo; details: for Chemotherapeutic index: Table 5, ten consecutive days into peritoneal cavity, evaluated 50 days after beginning
Protocol: The phleomycin was administered for ten consecutive days into peritoneal cavity of a ICR-SLC mouse, into which Ehrlich ascites carcinoma had been inoculated. Fifty days after the beginning of the experiment, measurements were made for (1) the number of dead mouse owing to toxicity, (2) the number of survived mouse, (3) mean survival period in 50 days, and (4) the ratio of mean survival period to that of reference mouse multiplied by 100. The chemotherapeutic index was calculated from the values of ED50 (50 % effective dose) and LD50 (50 % lethal dose) which were obtained as given below.
ED50 value: The maximum dose level within the range of logevity ratio of 100 to 200.
LD50 value: Calculated according to Behrens-Karber method from the data of (1) and (2).
^(2) A bleomycin was administered for ten consecutive days into
peritoneal cavity of a ICR-SLC mouse, where Ehrlich ascites carcinoma had
been inoculated, and 50 days after the beginning of experiment the […]

[3] = phleomycins of Table 1, Bleomycin A2 (copper-free base) = 1000 U/mg
[4] = bleomycins of Table 5, bleomycin A2 (copper-free base) = 1000 unit/mg
[5] = 0.19 mg/kg/day for 10 days i.p.
[6] = 0.39 mg/kg/day for 10 days i.p.
[7] = 0.78 mg/kg/day for 10 days i.p.
[8] = 1.56 mg/kg/day for 10 days i.p.
[9] = 3.12 mg/kg/day for 10 days i.p.
[10] = 6.25 mg/kg/day for 10 days i.p.
[11] = 12.5 mg/kg/day for 10 days i.p.
[12] = 25.0 mg/kg/day for 10 days i.p.

Substance: 3-N-n-Butylaminopropylaminophleomycin
- Antimicrobial potency [1, 3]: 3535 unit/mg

Substance: 3-N-Propenylaminopropylaminophleomycin
- Antimicrobial potency [1, 3]: 2100 unit/mg

Substance: 3-(3-Pyrrolidinopropylamino)propylaminophleomycin
- Antimicrobial potency [1, 3]: 2051 unit/mg

Substance: 3-(3-Pyrrolidinopropylamino)propylaminobleomycin
- Antimicrobial potency [1, 4]: 3286 Unit/mg
- Chemotherapeutic index [2]: 26.4

Substance: 3-N-(3-Hydroxypropyl)aminopropylaminobleomycin
- Antimicrobial potency [1, 4]: 1021 Unit/mg
- Chemotherapeutic index [2]: 29.6

Substance: 3-(N,N,N-Trimethylamino)propylaminophleomycin chloride
- Antimicrobial potency [1, 3]: 506 unit/mg

Substance: 3-N,N-Dimethylaminopropylaminobleomycin
- Antimicrobial potency [1, 4]: 806 Unit/mg
- Chemotherapeutic index [2]: 20.4

Substance: 3-(N,N-Dimethylaminopropylamino)propylaminophleomycin
- Antimicrobial potency [1, 3]: 1336 unit/mg

Substance: 3-[3-N-(1-Phenylethyl)aminopropylamino]propylaminobleomycin
- Antimicrobial potency [1, 4]: 9470 Unit/mg
- Chemotherapeutic index [2]: 18.1

Substance: 3-S,S-Dimethylmercaptopropylaminophleomycin
- Antimicrobial potency [1, 3]: 865 unit/mg
- Average longevity (mean survival period in 50 days) [2, 5]: 18.0
- Longevity ratio (mean survival period to that of reference mouse multiplied by 100) [2, 5]: 123
- Toxicity, number dead/total number [2, 5]: 0/5
- Viability (after 50 days), number survived/total number [2, 5]: 0/5
- Average longevity (mean survival period in 50 days) [2, 6]: 21.0
- Longevity ratio (mean survival period to that of reference mouse multiplied by 100) [2, 6]: 144
- Toxicity, number dead/total number [2, 6]: 0/5
- Viability (after 50 days), number survived/total number [2, 6]: 0/5
- Average longevity (mean survival period in 50 days) [2, 7]: 29.0
- Longevity ratio (mean survival period to that of reference mouse multiplied by 100) [2, 7]: 199
- Toxicity, number dead/total number [2, 7]: 0/5
- Viability (after 50 days), number survived/total number [2, 7]: 2/5
- Average longevity (mean survival period in 50 days) [2, 8]: 36.8
- Longevity ratio (mean survival period to that of reference mouse multiplied by 100) [2, 8]: 252
- Toxicity, number dead/total number [2, 8]: 0/5
- Viability (after 50 days), number survived/total number [2, 8]: 3/5
- Average longevity (mean survival period in 50 days) [2, 9]: 44.0
- Longevity ratio (mean survival period to that of reference mouse multiplied by 100) [2, 9]: 301
- Toxicity, number dead/total number [2, 9]: 0/5
- Viability (after 50 days), number survived/total number [2, 9]: 4/5
- Average longevity (mean survival period in 50 days) [2, 10]: 33.8
- Longevity ratio (mean survival period to that of reference mouse multiplied by 100) [2, 10]: 232
- Toxicity, number dead/total number [2, 10]: 3/5
- Viability (after 50 days), number survived/total number [2, 10]: 1/5
- Average longevity (mean survival period in 50 days) [2, 11]: 13.0
- Longevity ratio (mean survival period to that of reference mouse multiplied by 100) [2, 11]: 89
- Toxicity, number dead/total number [2, 11]: 5/5
- Viability (after 50 days), number survived/total number [2, 11]: 0/5
- Average longevity (mean survival period in 50 days) [2, 12]: 8.6
- Longevity ratio (mean survival period to that of reference mouse multiplied by 100) [2, 12]: 59
- Toxicity, number dead/total number [2, 12]: 5/5
- Viability (after 50 days), number survived/total number [2, 12]: 0/5
- Chemotherapeutic index (LD50/ED50) ([2]; Tables 2 to 4, i.p., for 10 days, 72000 min): 8.5
- Prolongation effect on the survival period of ICR-SLC mouse inoculated with Ehrlich ascites carcinoma ([2]; as shown in Tables 2 and 3): distinct prolongation effect
- LD50 (50 % lethal dose) ([2]; i.p., for 10 days, Behrens-Karber method, 72000 min): 6.6 mg/kg/day
- ED50 (50 % effective dose) ([2]; i.p., for 10 days, maximum dose level within the range of longevity ratio of 100 to 200, 72000 min): 0.78 mg/kg/day

Substance: 2-N,N-Dimethylaminoethylaminophleomycin
- Antimicrobial potency [1, 3]: 718 unit/mg

Substance: 3-(3-N-n-Butylaminopropylamino)propylaminobleomycin
- Antimicrobial potency [1, 4]: 5840 Unit/mg
- Chemotherapeutic index [2]: 59.2

Substance: 3-(3-N-Benzylaminopropylamino)propylaminobleomycin
- Antimicrobial potency [1, 4]: 6000 Unit/mg
- Chemotherapeutic index [2]: 24.0

Substance: 3-N-(3-Hydroxypropyl)aminopropylaminophleomycin
- Antimicrobial potency [1, 3]: 845 unit/mg

Substance: 3-N-tert-Butylaminopropylaminophleomycin
- Antimicrobial potency [1, 3]: 3520 unit/mg

Substance: 3-N-Cyclohexylaminopropylaminobleomycin
- Antimicrobial potency [1, 4]: 6560 Unit/mg
- Chemotherapeutic index [2]: 16.3

Substance: 3-Piperazinopropylaminophleomycin
- Antimicrobial potency [1, 3]: 581 unit/mg

Substance: 3-(3-N-Benzylaminopropylamino)propylaminophleomycin
- Antimicrobial potency [1, 3]: 6710 unit/mg

Substance: 3-(3-Piperidinopropylamino)propylaminophleomycin
- Antimicrobial potency [1, 3]: 2864 unit/mg

Substance: 3-(3-Piperidinopropylamino)propylaminobleomycin
- Antimicrobial potency [1, 4]: 3580 Unit/mg
- Chemotherapeutic index [2]: 16.8

Substance: 3-Pyrrolidinopropylaminophleomycin
- Antimicrobial potency [1, 3]: 853 unit/mg

Substance: 2-N,N-Dimethylaminoethylaminobleomycin
- Antimicrobial potency [1, 4]: 897 Unit/mg
- Chemotherapeutic index [2]: 7.8

Substance: 3-(3-N-Cyclohexylaminopropylamino)propylaminophleomycin
- Antimicrobial potency [1, 3]: 8570 unit/mg

Substance: 3-(3-N-Cyclohexylaminopropylamino)propylaminobleomycin
- Antimicrobial potency [1, 4]: 12335 Unit/mg
- Chemotherapeutic index [2]: 39.5

Substance: 3-Guanidinopropylaminophleomycin
- Antimicrobial potency [1, 3]: 2300 unit/mg

Substance: 3-N-(1-Phenylethyl)aminopropylaminophleomycin
- Antimicrobial potency [1, 3]: 4030 unit/mg

Substance: 3-N-(3,3-Dichloropropyl)aminopropylaminophleomycin
- Antimicrobial potency [1, 3]: 3120 unit/mg

Substance: 3-N-Cyclohexylaminopropylaminophleomycin
- Antimicrobial potency [1, 3]: 4284 unit/mg

Substance: 3-N,N-Diethylaminopropylaminophleomycin
- Antimicrobial potency [1, 3]: 829 unit/mg

Substance: 3-Piperidinopropylaminophleomycin
- Antimicrobial potency [1, 3]: 1006 unit/mg

Substance: 3-N-Benzylaminopropylaminophleomycin
- Antimicrobial potency [1, 3]: 3373 unit/mg

Substance: 3-N,N-Dimethylaminopropylaminophleomycin
- Antimicrobial potency [1, 3]: 648 unit/mg

Substance: 3-N-Methylaminopropylaminophleomycin
- Antimicrobial potency [1, 3]: 688 unit/mg

Substance: 2-N,N-Diethylaminoethylaminophleomycin
- Antimicrobial potency [1, 3]: 882 unit/mg

Substance: 2-(Imidazol-4-yl)ethylaminophleomycin
- Antimicrobial potency [1, 3]: 678 unit/mg

Substance: 3-(3-N-n-Butylaminopropylamino)propylaminophleomycin
- Antimicrobial potency [1, 3]: 4672 unit/mg

Substance: 3-Amidinopropylaminophleomycin
- Antimicrobial potency [1, 3]: 2500 unit/mg

Substance: 3-(3-Morpholinopropylamino)propylaminophleomycin
- Antimicrobial potency [1, 3]: 961 unit/mg

Substance: 3-[3-N-(1-phenylethyl)aminopropylamino]propylaminophleomycin
- Antimicrobial potency [1, 3]: 7208 unit/mg
